Assay results as given in patent publication US10758614B2, “Combination therapies targeting tumor-associated stroma or tumor cells and topoisomerase” (BIOMED VALLEY DISCOVERIES, INC., priority 2014, dated 2020).

B1: M830: TEM8 monoclonal antibody (hIgG1), VH SEQ ID NO:5, VL SEQ ID NO:6 (antibody, V domains shown)
VH: EVQLVESGGGVVQPGRSVRLSCAASGFTFSTYTMHWVRQAPGKGLEWVAIISNDGSNKYYADPVRGRFTISRDNSKNTLYLQMNSLRAEDTAVYYCVRGSSWYRGNWFDPWGQGTLVTVSS
VL: DIQMTQSPSSLSASVGDRVTIACRASQTISRYLNWYQQKPGKAPKLLIYAASSLQSGVSSRFSGSGSGTEFTLTISSLQPEDFATYFCQQTYSPPITFGQGTRLEIKR
modifications: TEM830 mAb VH; TEM830 mAb VL

Tests used:
MDA-MB231 tumors = details: 79-day study, endpoint 1500 mm^3; logrank
Method: Unless otherwise noted, female immunodeficient athymic nude mice (Crl:NU(Ncr)-Foxn/nu, Charles River) were used at nine weeks old with a body weight (BW) range of about 15 to about 30 grams on Day 1 of the study.
On the day of tumor implant, each test mouse was injected with cultured tumor cells, and tumor growth was monitored as the average size approached the target range. Tumors were measured in two dimensions using calipers, and volume was calculated using the formula: Tumor Volume (mm^3)=(w^2×l)/2 where w=width and l=length, in mm, of the tumor. Tumor weight was estimated with the assumption that 1 mg is equivalent to 1 mm^3 of tumor volume. For all therapeutic studies, mice were sorted into groups containing the same average size tumors prior to initiation of therapy. Controls
One group in each cohort received 1% vehicle IP three times per week to end, and served as the control group for calculation of % tumor growth delay (TGD).
Tumors were measured using calipers twice per week, and each animal was euthanized when its tumor reached the pre-determined tumor volume endpoint described for each experiment (usually 2000 mm^3) or on the final day, whichever came first. […] The time to endpoint (TTE) for analysis was calculated for each mouse by the following equation: TTE=[ log10(endpoint volume)−b]/m where TTE is expressed in days, endpoint volume is expressed in mm^3, b is the intercept, and m is the slope of the line obtained by linear regression of a log-transformed tumor growth data set. […] The calculated TTE was usually less than the TP date, the day on which the animal was euthanized for determination of tumor size. […]
Treatment outcome was evaluated from TGD, defined as the increase in the median TTE in a treatment group compared to the control group: TGD=T−C, expressed in days, or as a percentage of the median TTE of the control group: % TGD=[(T−C)/C]×100 where: […]
Animals were weighed daily on Days 1-5, then twice per week until completion of the study. […] Group mean BW loss also was monitored as per protocol. […]

H460 cells = assay: M830 in the H460 non-small cell lung carcinoma xenograft model; type: in vivo, athymic nude mice; details: M830 with combination partner Paclitaxel
Method: Animals were monitored for regression responses.
Cultured H460 cells were harvested during exponential growth and resuspended in phosphate buffered saline at a concentration of 1×10^8 cells/mL. 1.0×10^7 tumor cells were injected subcutaneously into the flank of athymic nude mice.

Molecule | survival compared to controls (MDA-MB231 tumors) | regression (at Day 21) (H460 cells)
CC(=O)O[C@H]1C(=O)[C@@]2(C)[C@H]([C@H](OC(=O)c3ccccc3)[C@]3(O)C[C@H](OC(=O)[C@H](O)[C@@H](NC(=O)c4ccccc4)c4ccccc4)C(C)=C1C3(C)C)[C@]1(OC(C)=O)CO[C@@H]1C[C@@H]2O [paclitaxel] | statistically significant survival extensions | 
COc1cccc2c1C(=O)c1c(O)c3c(c(O)c1C2=O)C[C@@](O)(C(=O)CO)C[C@@H]3O[C@H]1C[C@H](N)[C@H](O)[C@H](C)O1 [Doxorubicin, doxorubicin] | statistically significant survival extensions | 
B1 | did not produce statistically significant survival benefit | (−61% regression)
